This is an account of results in ChEMBL document CHEMBL1143495, “Topological model for the prediction of MRP1 inhibitory activity of pyrrolopyrimidines and templates derived from pyrrolopyrimidine” (Bioorg Med Chem Lett, 2005).

pIC50: −log10 of the molar value.

The target of this assay is Multidrug resistance-associated protein 1 (Homo sapiens, UniProt P33527). The experiment in a line: Inhibitory concentration against multidrug resistance associated protein 1.
Sequence of Multidrug resistance-associated protein 1 (P33527 whole entry): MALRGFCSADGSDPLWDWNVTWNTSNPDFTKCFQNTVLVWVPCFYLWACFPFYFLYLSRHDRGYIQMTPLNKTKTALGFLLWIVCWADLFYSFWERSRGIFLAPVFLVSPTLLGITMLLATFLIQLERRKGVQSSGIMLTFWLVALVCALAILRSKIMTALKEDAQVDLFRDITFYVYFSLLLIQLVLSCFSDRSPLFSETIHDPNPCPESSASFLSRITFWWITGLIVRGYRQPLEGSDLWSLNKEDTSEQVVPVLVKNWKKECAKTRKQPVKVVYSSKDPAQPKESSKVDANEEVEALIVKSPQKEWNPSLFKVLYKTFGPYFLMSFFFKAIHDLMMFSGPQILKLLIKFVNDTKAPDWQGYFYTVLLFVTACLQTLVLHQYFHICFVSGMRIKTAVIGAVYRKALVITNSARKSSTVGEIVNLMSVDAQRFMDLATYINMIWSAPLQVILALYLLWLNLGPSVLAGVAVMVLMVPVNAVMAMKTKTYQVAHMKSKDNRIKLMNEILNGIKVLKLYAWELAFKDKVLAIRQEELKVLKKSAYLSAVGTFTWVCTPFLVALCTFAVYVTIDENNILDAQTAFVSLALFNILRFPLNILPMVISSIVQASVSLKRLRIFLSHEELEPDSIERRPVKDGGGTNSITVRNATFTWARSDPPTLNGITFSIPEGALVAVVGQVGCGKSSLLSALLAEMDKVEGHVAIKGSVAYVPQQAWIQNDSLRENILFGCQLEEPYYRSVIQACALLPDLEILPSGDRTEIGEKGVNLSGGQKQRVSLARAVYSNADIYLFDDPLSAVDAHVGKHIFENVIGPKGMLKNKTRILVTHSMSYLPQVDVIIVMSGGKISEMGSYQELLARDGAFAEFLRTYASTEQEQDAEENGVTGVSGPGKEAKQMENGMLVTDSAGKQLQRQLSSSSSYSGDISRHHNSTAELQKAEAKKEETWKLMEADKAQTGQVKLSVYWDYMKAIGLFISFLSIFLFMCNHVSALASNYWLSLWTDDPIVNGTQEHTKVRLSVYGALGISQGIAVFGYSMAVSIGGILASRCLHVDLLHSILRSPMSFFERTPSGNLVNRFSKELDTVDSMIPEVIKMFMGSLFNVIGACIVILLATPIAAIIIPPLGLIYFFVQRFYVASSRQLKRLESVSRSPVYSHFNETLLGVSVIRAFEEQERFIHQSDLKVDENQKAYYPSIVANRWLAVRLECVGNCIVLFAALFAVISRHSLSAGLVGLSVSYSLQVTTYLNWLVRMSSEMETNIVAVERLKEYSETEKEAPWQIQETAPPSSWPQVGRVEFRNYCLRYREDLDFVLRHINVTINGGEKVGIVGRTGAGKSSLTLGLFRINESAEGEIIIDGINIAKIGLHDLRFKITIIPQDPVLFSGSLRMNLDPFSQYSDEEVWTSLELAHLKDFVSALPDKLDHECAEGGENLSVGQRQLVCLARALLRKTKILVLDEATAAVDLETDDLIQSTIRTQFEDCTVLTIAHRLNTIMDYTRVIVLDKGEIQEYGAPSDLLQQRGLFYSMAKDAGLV
One may read the pIC50 as −log10 of the IC50, conventionally taken in molar units. Regarding `CCC(=O)c1c2n(c3c(N4CCN(CCc5ccccc5)CC4)ncnc13)CCCC2`, the pIC50 was at most 6.60. Compound `N#Cc1c2n(c3c(N4CCN(CCc5ccc(F)c(F)c5)CC4)ncnc13)CCCC2` showed a pIC50 above 6.60. Regarding `O=C(NCc1ccccn1)c1c2n(c3c(N4CCN(CCc5ccc(F)c(F)c5)CC4)ncnc13)CCCC2`, the pIC50 was above 6.60. To `N#Cc1c2n(c3c(N4CCN(CCCc5ccccc5)CC4)ncnc13)CCCC2` belongs at most 6.60; to `O=C(c1ccccc1)c1c2n(c3c(N4CCN(CCc5ccccc5)CC4)ncnc13)CCCC2`, at most 6.60. `N#Cc1c2n(c3c(NCCc4ccccc4)ncnc13)CCCC2` gave a pIC50 of at most 6.60. In turn, `COc1ccc(CCN2CCN(c3ncnc4c(C#N)c5n(c34)CCCC5)CC2)cc1` showed a negative logarithm of the IC50 (pIC50) of at most 6.60. As for `Cc1cnc2c(c1C(N)=O)c1ncnc(N3CCN(CCc4ccc(F)c(F)c4)CC3)c1n2C`, the figure is above 6.60; as for `Cc1nc(-c2c3n(c4c(N5CCN(CCc6ccccc6)CC5)ncnc24)CCCC3)sc1C`, at most 6.60. To `N#Cc1c2n(c3c(N4CCN(CCc5ccc(F)c(F)c5)CC4)nc(-c4cccnc4)nc13)CCCC2` belongs above 6.60. With `N#Cc1c2n(c3c(N4CCN(CCc5ccccc5[N+](=O)[O-])CC4)ncnc13)CCCC2`, the pIC50 was at most 6.60.

`NC(=O)c1c2n(c3c(N4CCN(CCc5ccc(F)c(F)c5)CC4)ncnc13)CCCC2` showed a pIC50 above 6.60. `Cc1cnc2c(c1C#N)c1ncnc(N3CCN(CCc4ccc(F)c(F)c4)CC3)c1n2C` showed a pIC50 of at most 6.60. Consider `N#Cc1c2n(c3c(N4CCN(CCc5ccccc5Cl)CC4)ncnc13)CCCC2`, for which the pIC50 is at most 6.60. As for `Cc1nc(-c2c3n(c4c(N5CCN(CCc6ccccc6)CC5)ncnc24)CCCC3)no1`, the figure is at most 6.60; as for `N#Cc1c2n(c3c(NS(=O)(=O)Cc4ccccc4)ncnc13)CCCC2`, at most 6.60.

`N#Cc1c2n(c3c(N4CCN(S(=O)(=O)Cc5ccccc5)CC4)ncnc13)CCCC2` gave a pIC50 of at most 6.60. As for `N#Cc1c2n(c3c(N4CCN(CCc5cccc([N+](=O)[O-])c5)CC4)ncnc13)CCCC2`, the pIC50 is at most 6.60. The compound `N#Cc1c2n(c3c(N4CCN(CCc5ccc(Cl)cc5)CC4)ncnc13)CCCC2` showed a pIC50 of at most 6.60.

`Cc1c([N+](=O)[O-])nc2c(c1C(N)=O)c1ncnc(N3CCN(CCc4ccc(F)c(F)c4)CC3)c1n2C` had a pIC50 above 6.60. To `COc1cccc(CNC(=O)c2c3n(c4c(N5CCN(CCc6ccc(F)c(F)c6)CC5)ncnc24)CCCC3)c1OC` belongs above 6.60; to `N#Cc1c2n(c3c(N4CCN(CCc5cccc(Cl)c5)CC4)ncnc13)CCCC2`, at most 6.60. To `N#Cc1c2n(c3c(N4CCN(CCc5ccc(F)c(F)c5)CC4)nc(-c4ccncc4)nc13)CCCC2` belongs above 6.60; to `CCOC(=O)Cn1c2cccc(C(N)=O)c2c2ncnc(N3CCN(CCc4ccc(F)c(F)c4)CC3)c21`, above 6.60. `N#Cc1c2n(c3c(N4CCN(CCc5ccccc5)CC4)nc(-c4ccccc4)nc13)CCCC2` had a pIC50 of at most 6.60. As for `N#Cc1c2n(c3c(N4CCN(CCc5c[nH]c6ccccc56)CC4)ncnc13)CCCC2`, the figure is at most 6.60; as for `N#Cc1c2n(c3c(N4CCN(CC(=O)c5ccccc5)CC4)ncnc13)CCCC2`, at most 6.60; as for `c1ccc(CCN2CCN(c3ncnc4c(-c5ncccn5)c5n(c34)CCCC5)CC2)cc1`, at most 6.60. With `Cc1ccccc1-c1nc(N2CCN(CCc3ccc(F)c(F)c3)CC2)c2c(n1)c(C#N)c1n2CCCC1`, the pIC50 is at most 6.60. The compound `CN(CCc1ccccc1)c1ncnc2c(C#N)c3n(c12)CCCC3` showed a pIC50 of at most 6.60. As for `COc1cccc(CCN2CCN(c3ncnc4c(C#N)c5n(c34)CCCC5)CC2)c1`, the figure is at most 6.60; as for `N#Cc1c2n(c3c(N4CCN(CCc5ccccc5)CC4)nc(I)nc13)CCCC2`, at most 6.60; as for `COC(=O)c1c2n(c3c(N4CCN(CCc5ccccc5)CC4)ncnc13)CCCC2`, at most 6.60. The compound `N#Cc1c2n(c3c(NCCN4CCc5ccccc5C4)ncnc13)CCCC2` showed a pIC50 of at most 6.60. As for `N#Cc1c2n(c3c(N4CCN(CCc5ccc([N+](=O)[O-])cc5)CC4)ncnc13)CCCC2`, the figure is at most 6.60.

Compound `CC(=O)Nc1ccc(-c2nc(N3CCN(CCc4ccccc4)CC3)c3c(n2)c(C#N)c2n3CCCC2)cc1` had a pIC50 of at most 6.60.
